Assay results as given in the supplement of paper PMC10307832.

Tests used:
Experiment in all cases: relative viability (nuclei count vs DMSO), 5 days (fraction); higher = more cells survive
XMD13-2 + OSI-027 = compound: C1CC1C(=O)NC2=NNC3=C2C=CC(=C3)C4=CC(=CC=C4)C(=O)NC5CC5 [XMD13-2] + COc1cccc2cc(-c3nc([C@H]4CC[C@H](C(=O)O)CC4)n4ncnc(N)c34)[nH]c12 [OSI-027] (partner 0.5 µM)
How it was run: (§1)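 The day after seeding in 1536-well plates, lung cancer cell lines were treated by pin tool with a single drug, or with a fixed anchor-drug dose together with five library-drug doses (not always all listed) in √10 steps. After 5 days, a combined fix-and-stain solution (final 0.05% Triton X-100, 1% formaldehyde, 1 ug/ml Hoechst) was added. Nuclei counted on 4× images gave relative viability as treated counts over vehicle counts, reported as the median of duplicate plates.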

ALW-II-49-7 + Dasatinib = compound: Cc1ccc(C(=O)Nc2cccc(C(F)(F)F)c2)cc1Nc1cncc(C(N)=O)c1 [ALW-II-49-7] + Cc1nc(Nc2ncc(C(=O)Nc3c(C)cccc3Cl)s2)cc(N2CCN(CCO)CC2)n1 [Dasatinib] (partner 0.075 µM)
How it was run: as §1

ALW-II-49-7 + Luminespib = compound: Cc1ccc(C(=O)Nc2cccc(C(F)(F)F)c2)cc1Nc1cncc(C(N)=O)c1 [ALW-II-49-7] + CCNC(=O)c1noc(-c2cc(C(C)C)c(O)cc2O)c1-c1ccc(CN2CCOCC2)cc1 [Luminespib] (partner 0.01 µM)
How it was run: as §1

Dasatinib + Palbociclib = compound: Cc1nc(Nc2ncc(C(=O)Nc3c(C)cccc3Cl)s2)cc(N2CCN(CCO)CC2)n1 [Dasatinib] + CC(=O)c1c(C)c2cnc(Nc3ccc(N4CCNCC4)cn3)nc2n(C2CCCC2)c1=O [Palbociclib] (partner 0.5 µM)
How it was run: as §1

| Cell Line | relative viability (XMD13-2 + OSI-027; first compound 0.05 µM) | relative viability (XMD13-2 + OSI-027; first compound 0.1581 µM) | relative viability (XMD13-2 + OSI-027; first compound 0.5 µM) | relative viability (XMD13-2 + OSI-027; first compound 1.581 µM) | relative viability (XMD13-2 + OSI-027; first compound 5 µM) | relative viability (ALW-II-49-7 + Dasatinib; first compound 0.08 µM) | relative viability (ALW-II-49-7 + Dasatinib; first compound 0.253 µM) | relative viability (ALW-II-49-7 + Dasatinib; first compound 0.8 µM) | relative viability (ALW-II-49-7 + Dasatinib; first compound 2.53 µM) | relative viability (ALW-II-49-7 + Dasatinib; first compound 8 µM) | relative viability (ALW-II-49-7 + Luminespib; first compound 0.08 µM) | relative viability (ALW-II-49-7 + Luminespib; first compound 0.253 µM) | relative viability (ALW-II-49-7 + Luminespib; first compound 0.8 µM) | relative viability (ALW-II-49-7 + Luminespib; first compound 2.53 µM) | relative viability (ALW-II-49-7 + Luminespib; first compound 8 µM) | relative viability (Dasatinib + Palbociclib; first compound 0.005 µM) | relative viability (Dasatinib + Palbociclib; first compound 0.01581 µM) | relative viability (Dasatinib + Palbociclib; first compound 0.05 µM) | relative viability (Dasatinib + Palbociclib; first compound 0.1581 µM) | relative viability (Dasatinib + Palbociclib; first compound 0.5 µM) |
| --- | --- | --- | --- | --- | --- | --- | --- | --- | --- | --- | --- | --- | --- | --- | --- | --- | --- | --- | --- | --- |
| NCI-H596 | 0.776 | 0.673 | 0.715 | 0.79 | 0.985 | 0.575 | 0.632 | 0.459 | 0.582 | 0.581 | 0.929 | 0.943 | 1.18 | 1.1 | 1.12 | – | – | – | – | – |
| NCI-H1437 | 0.958 | 0.929 | 0.885 | 0.873 | 0.985 | 0.414 | 0.404 | 0.425 | 0.309 | 0.333 | 1.13 | 1.12 | 1.11 | 1.08 | 1.06 | 0.353 | 0.331 | 0.335 | 0.302 | 0.277 |
| NCI-H727 | 0.543 | 0.68 | 0.573 | 0.54 | 0.664 | 0.352 | 0.324 | 0.193 | 0.412 | 0.446 | 0.419 | 0.336 | 0.392 | 0.367 | 0.239 | 0.553 | 0.455 | 0.523 | 0.388 | 0.281 |
| PC-3 [JPC-3] | 0.831 | 0.663 | 0.746 | 0.707 | 0.754 | 0.827 | 0.916 | 0.929 | 0.951 | 0.854 | 0.669 | 0.698 | 0.636 | 0.548 | 0.772 | 0.593 | 0.534 | 0.607 | 0.568 | 0.465 |
| SW 1573 | 0.691 | 0.581 | 0.647 | 0.497 | 0.36 | 0.473 | 0.399 | 0.568 | 0.514 | 0.304 | 0.29 | 0.223 | 0.251 | 0.289 | 0.144 | 0.36 | – | 0.295 | 0.182 | 0.208 |
| NCI-H2228 | 0.824 | 0.605 | 0.597 | 0.518 | 0.546 | 0.57 | 0.391 | 0.509 | 0.538 | 0.455 | 0.255 | 0.14 | 0.16 | 0.145 | 0.215 | 0.73 | 0.611 | 0.652 | 0.364 | 0.367 |
| NCI-H1650 | 0.651 | 0.609 | 0.747 | 0.555 | 0.697 | 0.273 | 0.306 | 0.323 | 0.282 | 0.341 | 0.199 | 0.169 | 0.209 | 0.19 | 0.206 | 0.282 | 0.12 | 0.184 | 0.138 | 0.177 |
| NCI-H358 | 0.97 | 0.686 | 0.848 | 0.726 | 0.442 | 0.151 | 0.159 | 0.173 | 0.192 | 0.286 | 0.272 | 0.318 | 0.244 | 0.322 | 0.245 | 0.144 | 0.129 | 0.101 | 0.0794 | 0.0791 |
